Values after ≈ are worked out from the molar mass of the structure shown.
Columns and labels:
Type in all cases: functional
Enterococcus faecalis [1] = test: Antimicrobial activity against Enterococcus faecalis clinical isolates assessed as percent susceptible isolates by broth microdilution method
Enterococcus faecium [2] = test: Antimicrobial activity against vancomycin-nonsusceptible Enterococcus faecium clinical isolates by broth microdilution method
Enterococcus faecalis [3] = test: Antimicrobial activity against Enterococcus faecalis expressing VanA gene clinical isolates assessed as percent susceptible isolates by broth microdilution method
[4] = system: Staphylococcus epidermidis; test: Antimicrobial activity against oxacillin-susceptible Staphylococcus epidermidis clinical isolates by broth microdilution method
Enterococcus faecium [5] = test: Antimicrobial activity against vancomycin-susceptible Enterococcus faecium clinical isolates assessed as percent susceptible isolates by broth microdilution method
Enterococcus faecium [6] = test: Antimicrobial activity against Enterococcus faecium clinical isolates by broth microdilution method
[7] = system: Staphylococcus epidermidis; test: Antimicrobial activity against Staphylococcus epidermidis clinical isolates by broth microdilution method
Enterococcus faecalis [8] = test: Antimicrobial activity against vancomycin-susceptible Enterococcus faecalis clinical isolates by broth microdilution method
Enterococcus faecalis [9] = test: Antimicrobial activity against Enterococcus faecalis expressing VanB gene clinical isolates assessed as percent susceptible isolates by broth microdilution method
[10] = system: Staphylococcus haemolyticus; test: Antimicrobial activity against oxacillin-susceptible Staphylococcus haemolyticus clinical isolates assessed as percent susceptible isolates by broth microdilution method
Staphylococcus aureus [11] = test: Antimicrobial activity against oxacillin-susceptible Staphylococcus aureus clinical isolates assessed as percent susceptible isolates by broth microdilution method
[12] = system: Staphylococcus haemolyticus; test: Antimicrobial activity against oxacillin-susceptible Staphylococcus haemolyticus clinical isolates by broth microdilution method
[13] = system: Staphylococcus haemolyticus; test: Antimicrobial activity against Staphylococcus haemolyticus clinical isolates by broth microdilution method
Staphylococcus aureus [14] = test: Antimicrobial activity against oxacillin-resistant Staphylococcus aureus clinical isolates by broth microdilution method
Staphylococcus aureus [15] = test: Antimicrobial activity against Staphylococcus aureus clinical isolates by broth microdilution method
Enterococcus faecium [16] = test: Antimicrobial activity against vancomycin-nonsusceptible Enterococcus faecium clinical isolates assessed as percent susceptible isolates by broth microdilution method
Enterococcus faecalis [17] = test: Antimicrobial activity against vancomycin-susceptible Enterococcus faecalis clinical isolates assessed as percent susceptible isolates by broth microdilution method
Enterococcus faecium [18] = test: Antimicrobial activity against Enterococcus faecium expressing VanA gene clinical isolates assessed as percent susceptible isolates by broth microdilution method
Enterococcus faecalis [19] = test: Antimicrobial activity against vancomycin-nonsusceptible Enterococcus faecalis clinical isolates assessed as percent susceptible isolates by broth microdilution method
[20] = system: Staphylococcus epidermidis; test: Antimicrobial activity against oxacillin-susceptible Staphylococcus epidermidis clinical isolates assessed as percent susceptible isolates by broth microdilution method
[21] = system: Staphylococcus epidermidis; test: Antimicrobial activity against oxacillin-resistant Staphylococcus epidermidis clinical isolates by broth microdilution method
[22] = system: Staphylococcus epidermidis; test: Antimicrobial activity against Staphylococcus epidermidis clinical isolates assessed as percent susceptible isolates by broth microdilution method
Enterococcus faecium [23] = test: Antimicrobial activity against Enterococcus faecium expressing VanB gene clinical isolates by broth microdilution method
[24] = system: Staphylococcus haemolyticus; test: Antimicrobial activity against Staphylococcus haemolyticus clinical isolates assessed as percent susceptible isolates by broth microdilution method
Staphylococcus aureus [25] = test: Antimicrobial activity against oxacillin-susceptible Staphylococcus aureus clinical isolates by broth microdilution method
[26] = system: Staphylococcus haemolyticus; test: Antimicrobial activity against oxacillin-resistant Staphylococcus haemolyticus clinical isolates by broth microdilution method
Enterococcus faecium [27] = test: Antimicrobial activity against Enterococcus faecium expressing VanA gene clinical isolates by broth microdilution method
Enterococcus faecalis [28] = test: Antimicrobial activity against Enterococcus faecalis expressing VanA gene clinical isolates by broth microdilution method
Enterococcus faecalis [29] = test: Antimicrobial activity against Enterococcus faecalis expressing VanB gene clinical isolates by broth microdilution method
Enterococcus faecium [30] = test: Antimicrobial activity against Enterococcus faecium clinical isolates assessed as percent susceptible isolates by broth microdilution method
Enterococcus faecalis [31] = test: Antimicrobial activity against vancomycin-nonsusceptible Enterococcus faecalis clinical isolates by broth microdilution method
Enterococcus faecium [32] = test: Antimicrobial activity against vancomycin-susceptible Enterococcus faecium clinical isolates by broth microdilution method
Enterococcus faecalis [33] = test: Antimicrobial activity against Enterococcus faecalis clinical isolates by broth microdilution method
[34] = system: Staphylococcus epidermidis; test: Antimicrobial activity against oxacillin-resistant Staphylococcus epidermidis clinical isolates assessed as percent susceptible isolates by broth microdilution method
Enterococcus faecium [35] = test: Antimicrobial activity against Enterococcus faecium expressing VanB gene clinical isolates assessed as percent susceptible isolates by broth microdilution method
Staphylococcus aureus [36] = test: Antimicrobial activity against Staphylococcus aureus clinical isolates assessed as percent susceptible isolates by broth microdilution method
Enterococcus faecium [37] = test: Antimicrobial activity against vancomycin-susceptible Enterococcus faecium clinical isolates assessed as resistant isolates by broth microdilution method
Enterococcus faecalis [38] = test: Antimicrobial activity against vancomycin-susceptible Enterococcus faecalis clinical isolates assessed as resistant isolates by broth microdilution method
Enterococcus faecium [39] = test: Antimicrobial activity against Enterococcus faecium expressing VanB gene clinical isolates assessed as resistant isolates by broth microdilution method
Enterococcus faecalis [40] = test: Antimicrobial activity against Enterococcus faecalis expressing VanB gene clinical isolates assessed as resistant isolates by broth microdilution method
Enterococcus faecalis [41] = test: Antimicrobial activity against vancomycin-nonsusceptible Enterococcus faecalis clinical isolates assessed as resistant isolates by broth microdilution method
Enterococcus faecium [42] = test: Antimicrobial activity against Enterococcus faecium expressing VanA gene clinical isolates assessed as resistant isolates by broth microdilution method
Enterococcus faecalis [43] = test: Antimicrobial activity against Enterococcus faecalis clinical isolates assessed as resistant isolates by broth microdilution method
Enterococcus faecium [44] = test: Antimicrobial activity against Enterococcus faecium clinical isolates assessed as resistant isolates by broth microdilution method
Enterococcus faecalis [45] = test: Antimicrobial activity against Enterococcus faecalis expressing VanA gene clinical isolates assessed as resistant isolates by broth microdilution method
Enterococcus faecium [46] = test: Antimicrobial activity against vancomycin-nonsusceptible Enterococcus faecium clinical isolates assessed as resistant isolates by broth microdilution method

| Structure (SMILES) | Activity (Enterococcus faecalis [1]) | MIC90 (Enterococcus faecium [2]) | Activity (Enterococcus faecalis [3]) | Activity (Enterococcus faecium [5]) | MIC90 (Enterococcus faecium [6]) | MIC90 (Enterococcus faecalis [8]) | Activity (Enterococcus faecalis [9]) | Activity (Enterococcus faecium [16]) | Activity (Enterococcus faecalis [17]) | Activity (Enterococcus faecium [18]) | Activity (Enterococcus faecalis [19]) | MIC90 (Enterococcus faecium [23]) | MIC90 (Enterococcus faecium [27]) | MIC90 (Enterococcus faecalis [28]) | MIC90 (Enterococcus faecalis [29]) | Activity (Enterococcus faecium [30]) | MIC90 (Enterococcus faecalis [31]) | MIC90 (Enterococcus faecium [32]) | MIC90 (Enterococcus faecalis [33]) | Activity (Enterococcus faecium [35]) | other results |
| --- | --- | --- | --- | --- | --- | --- | --- | --- | --- | --- | --- | --- | --- | --- | --- | --- | --- | --- | --- | --- | --- |
| CCCCCCCCCC(=O)N[C@@H](Cc1c[nH]c2ccccc12)C(=O)N[C@H](CC(N)=O)C(=O)N[C@@H](CC(=O)O)C(=O)N[C@@H]1C(=O)NCC(=O)N[C@@H](CCCN)C(=O)N[C@@H](CC(=O)O)C(=O)N[C@H](C)C(=O)N[C@@H](CC(=O)O)C(=O)NCC(=O)N[C@H](CO)C(=O)N[C@@H]([C@H](C)CC(=O)O)C(=O)N[C@@H](CC(=O)c2ccccc2N)C(=O)O[C@@H]1C | 99.9% | 4 µg/mL (≈ 2.47 µM) | 98.5% | 98.3% | 4 µg/mL (≈ 2.47 µM) | 2 µg/mL (≈ 1.23 µM) | 100% | 98.5% | 99.9% | 98.8% | 98.9% | 4 µg/mL (≈ 2.47 µM) | 4 µg/mL (≈ 2.47 µM) | 2 µg/mL (≈ 1.23 µM) | 2 µg/mL (≈ 1.23 µM) | 98.4% | 2 µg/mL (≈ 1.23 µM) | 4 µg/mL (≈ 2.47 µM) | 2 µg/mL (≈ 1.23 µM) | 93.1% | MIC90 [4]: 0.5 µg/mL (≈ 0.309 µM); MIC90 [7]: 0.5 µg/mL (≈ 0.309 µM); Activity [10]: 100%; Activity (Staphylococcus aureus [11]): 99.9%; MIC90 [12]: 0.5 µg/mL (≈ 0.309 µM); MIC90 [13]: 0.5 µg/mL (≈ 0.309 µM); MIC90 (Staphylococcus aureus [14]): 0.5 µg/mL (≈ 0.309 µM); MIC90 (Staphylococcus aureus [15]): 0.5 µg/mL (≈ 0.309 µM); Activity [20]: 100%; MIC90 [21]: 0.5 µg/mL (≈ 0.309 µM); Activity [22]: 99.9%; Activity [24]: 100%; MIC90 (Staphylococcus aureus [25]): 0.5 µg/mL (≈ 0.309 µM); MIC90 [26]: 0.5 µg/mL (≈ 0.309 µM); Activity [34]: 99.8%; Activity (Staphylococcus aureus [36]): 99.9% |
| CC1(C)S[C@@H]2[C@H](NC(=O)[C@H](N)c3ccccc3)C(=O)N2[C@H]1C(=O)O [AMPICILLIN] | 99.9% | > 256 µg/mL | 100% | 27.7% | > 256 µg/mL | 1 µg/mL (≈ 2.86 µM) | 100% | 1.5% | 99.9% | 1% | 100% | > 256 µg/mL | > 256 µg/mL | 2 µg/mL (≈ 5.72 µM) | 2 µg/mL (≈ 5.72 µM) | 12.7% | 2 µg/mL (≈ 5.72 µM) | 256 µg/mL (≈ 733 µM) | 1 µg/mL (≈ 2.86 µM) | 3.4% | Activity (Enterococcus faecium [37]): 72.3%; Activity (Enterococcus faecalis [38]): 0.1%; Activity (Enterococcus faecium [39]): 96.6%; Activity (Enterococcus faecalis [40]): 0%; Activity (Enterococcus faecalis [41]): 0%; Activity (Enterococcus faecium [42]): 99%; Activity (Enterococcus faecalis [43]): 0.1%; Activity (Enterococcus faecium [44]): 87.3%; Activity (Enterococcus faecalis [45]): 0%; Activity (Enterococcus faecium [46]): 98.5% |

Reference: ChEMBL document CHEMBL1649268, “Comparative in vitro activity profile of oritavancin against recent gram-positive clinical isolates” (2009)
